Laboratory results as given in paper PMC9382192, “Combined treatment with epigenetic agents enhances anti-tumor activity of MAGE-D4 peptide-specific T cells by upregulating the MAGE-D4 expression in glioma” (Frontiers in Oncology, 2022).

Key:
[1] = tested on: T cells; assay: CFSE lymphocyte proliferation assay; assay type: cell-based, human; conditions: T cells with peptide-pulsed DCs, 96 h, flow cytometry
Method: CFSE assay was used to further detect the proliferation of T cells stimulated by peptide-pulsed DCs. The cells were suspended at 10^6/ml with RPMI1640 and added CFSE (5 μM/ml), then incubated at room temperature for 20 min. Fetal bovine serum (FBS, Gbico, USA) was added and incubated for 5 min to terminate the reaction, washed with PBS twice. Then, the peptide-incubated DC was added, incubated for 96 h, and performed flow cytometry analysis.

[2] = tested on: U87; assay: LDH cytotoxicity assay, U87; assay type: cell-based, human; conditions: TSA-treated U87, E:T 50:1, 4 h; compared to T cell alone and NC-T cell groups
Method: The human glioma cell lines (U87-MG and U251) were obtained from the Cell Bank of Type Culture Collection of the Chinese Academy of Science (Shanghai, China). Decitabine (DAC, CAS No. A3656), valproic acid (VPA, CAS No. 99-66-1), and trichostatin A (TSA, CAS No. 58880-19-6) were purchased from Sigma-Aldrich Corporation (St. Louis, MO, USA). DAC and TSA were dissolved in DMSO to a concentration of 10 mM. Aliquots were stored at −80°C and diluted with media before being used. […]
The cytotoxic activity of MAGE-D4 peptide-specific CTLs to glioma cells was determined according to the instructions of the manufacturers by our published method ([31]). […] Four hours later, suspended cells were collected for CD107a flow cytometry, meanwhile, the supernatant was collected and analyzed with granzyme A and perforin ELISA kit (Cloud-Clone Corporation, Wuhan, China) at 450 nm, and the LDH kit (Promega, USA) at 490 nm. The percentage of specific lysis was calculated using the following formula: [(experimental release − spontaneous release)/(maximum release − spontaneous release)] × 100. […] Then, the cytotoxicity assay was measured and calculated as mentioned above.

CLPPPNVIL [Peptide P8]
proliferation index (CFSE) ([1]; Figure 4B inset bottom left): highest | percentage of cells that divided at least once (CFSE) ([1]; Figure 4B inset top left): highest | cytotoxicity of peptide-specific T cells (specific lysis, LDH) [2]: higher cytotoxicity
